According to paper PMC9352670 (2022):

How the values were obtained:
[1] = tested on: Dm-HS-3 (DNA, aptamer, HFNAP: side-chain on 5' nucleobase of each coding trinucleotide, positions 19,22,25,...,61 (codon key Figure 1B)) GAAAGCAGGACTGGAGATCGATTATTGTGATTTTGATCTCCTCCATATCCCCTTCCCTACTCGCAGACCGAACTAGAGCTT; test: microscale thermophoresis; details: 5 mM KCl, 1 mM MgCl2, 1 mM CaCl2 added; HBS-P+ buffer, 25 °C
[2] = tested on: Dm-HS-7 (DNA, aptamer, HFNAP: side-chain on 5' nucleobase of each coding trinucleotide, positions 19,22,25,...,61 (codon key Figure 1B)) GAAAGCAGGACTGGAGATCGATTGCAGTTACGTTGCTAGTCCCCTTGATCACCTCCGTCACCTCAGACCGAACTAGAGCTT; test: microscale thermophoresis; details: 5 mM KCl, 1 mM MgCl2, 1 mM CaCl2 added; HBS-P+ buffer, 25 °C
[3] = tested on: Dm-CVAE-without-selection-1 (DNA, aptamer, HFNAP: side-chain on 5' nucleobase of each coding trinucleotide, positions 19,22,25,...,61 (codon key Figure 1B)) GAAAGCAGGACTGGAGATCCGCATCGCTTATGCTGATCTTTTCCATATTGCCTTTCCTCCTACCAGACCGAACTAGAGCTT; test: microscale thermophoresis; details: 5 mM KCl, 1 mM MgCl2, 1 mM CaCl2 added; HBS-P+ buffer, 25 °C
[4] = tested on: Dm-reference-based-random-after-selection-1 (DNA, other, HFNAP: side-chain on 5' nucleobase of each coding trinucleotide, positions 19,22,25,...,61 (codon key Figure 1B)) GAAAGCAGGACTGGAGATCCATGTCCACCGTACCGCTACTGCTACTATTTGCTTCGGTACTGTCAGACCGAACTAGAGCTT; test: microscale thermophoresis; details: 5 mM KCl, 1 mM MgCl2, 1 mM CaCl2 added; HBS-P+ buffer, 25 °C
[5] = tested on: Dm-reference-based-random-after-selection-2 (DNA, other, HFNAP: side-chain on 5' nucleobase of each coding trinucleotide, positions 19,22,25,...,61 (codon key Figure 1B)) GAAAGCAGGACTGGAGATTTGTGCCCCTGATGCCCATGGTCCCTCCGCTGCTAACGTTTGCCTCAGACCGAACTAGAGCTT; test: microscale thermophoresis; details: 5 mM KCl, 1 mM MgCl2, 1 mM CaCl2 added; HBS-P+ buffer, 25 °C
[6] = tested on: Dm-reference-based-random-after-selection-4 (DNA, other, HFNAP: side-chain on 5' nucleobase of each coding trinucleotide, positions 19,22,25,...,61 (codon key Figure 1B)) GAAAGCAGGACTGGAGATCATCCTTCCTTATAGCATCGGCCGTTTCCGTTGCCATCCCCCCCACAGACCGAACTAGAGCTT; test: microscale thermophoresis; details: 5 mM KCl, 1 mM MgCl2, 1 mM CaCl2 added; HBS-P+ buffer, 25 °C
[7] = tested on: Dm-HS-3 ∆ s.c. (DNA, aptamer, none (no side-chains)) GAAAGCAGGACTGGAGATCGATTATTGTGATTTTGATCTCCTCCATATCCCCTTCCCTACTCGCAGACCGAACTAGAGCTT; test: microscale thermophoresis; details: 5 mM KCl, 1 mM MgCl2, 1 mM CaCl2 added; HBS-P+ buffer, 25 °C
[8] = tested on: Dm-HS-1 TGA ∆ s.c. (DNA, aptamer, as Dm-HS-1 but no side-chain at 34: fluorophenyl at 19; allylamine at 22,25,37; alcohol at 28,49; phenol at 31,46; cyclopentyl at 40; cyclopropyl at 43,58; imidazole at 52,55,61) GAAAGCAGGACTGGAGATCGATTCTGGTGCTGTTGATCTCCGCCATTGTGCTCCTACCCTTCACAGACCGAACTAGAGCTT; test: microscale thermophoresis; details: 5 mM KCl, 1 mM MgCl2, 1 mM CaCl2 added; HBS-P+ buffer, 25 °C
[9] = tested on: Dm-HS-1 TGC ∆ s.c. (DNA, aptamer, no side-chain at 28 and 49 (codons 4 and 11 TGC, alcohol 2x); others as HFNAP: fluorophenyl at 19; allylamine at 22, 25, 37; alcohol at 34; phenol at 31, 46; cyclopentyl at 40; cyclopropyl at 43, 58; imidazole at 52, 55, 61) GAAAGCAGGACTGGAGATCGATTCTGGTGCTGTTGATCTCCGCCATTGTGCTCCTACCCTTCACAGACCGAACTAGAGCTT; test: microscale thermophoresis; details: 5 mM KCl, 1 mM MgCl2, 1 mM CaCl2 added to HBS-P+; HBS-P+ buffer, 25 °C
[10] = tested on: Dm-HS-1 CCG ∆ s.c. (DNA, aptamer, no side-chain at 40 (codon 8 CCG); others as HFNAP: fluorophenyl at 19; allylamine at 22, 25, 37; alcohol at 28, 34, 49; phenol at 31, 46; cyclopropyl at 43, 58; imidazole at 52, 55, 61) GAAAGCAGGACTGGAGATCGATTCTGGTGCTGTTGATCTCCGCCATTGTGCTCCTACCCTTCACAGACCGAACTAGAGCTT; test: microscale thermophoresis; details: 5 mM KCl, 1 mM MgCl2, 1 mM CaCl2 added to HBS-P+; HBS-P+ buffer, 25 °C
[11] = tested on: Dm-HS-1 TCC ∆ s.c. (DNA, aptamer, no side-chain at 52 (codon 12 TCC); others as HFNAP: fluorophenyl at 19; allylamine at 22, 25, 37; alcohol at 28, 34, 49; phenol at 31, 46; cyclopentyl at 40; cyclopropyl at 43, 58; imidazole at 55, 61) GAAAGCAGGACTGGAGATCGATTCTGGTGCTGTTGATCTCCGCCATTGTGCTCCTACCCTTCACAGACCGAACTAGAGCTT; test: microscale thermophoresis; details: 5 mM KCl, 1 mM MgCl2, 1 mM CaCl2 added to HBS-P+; HBS-P+ buffer, 25 °C
[12] = tested on: Dm-HS-1 TAC ∆ s.c. (DNA, aptamer, no side-chain at 55 (codon 13 TAC); others as HFNAP: fluorophenyl at 19; allylamine at 22, 25, 37; alcohol at 28, 34, 49; phenol at 31, 46; cyclopentyl at 40; cyclopropyl at 43, 58; imidazole at 52, 61) GAAAGCAGGACTGGAGATCGATTCTGGTGCTGTTGATCTCCGCCATTGTGCTCCTACCCTTCACAGACCGAACTAGAGCTT; test: microscale thermophoresis; details: 5 mM KCl, 1 mM MgCl2, 1 mM CaCl2 added to HBS-P+; HBS-P+ buffer, 25 °C
[13] = tested on: Dm-HS-1 (DNA, aptamer, HFNAP, side-chains on nucleobases: fluorophenyl at 19; allylamine at 22, 25, 37; alcohol at 28, 34, 49; phenol at 31, 46; cyclopentyl at 40; cyclopropyl at 43, 58; imidazole at 52, 55, 61) GAAAGCAGGACTGGAGATCGATTCTGGTGCTGTTGATCTCCGCCATTGTGCTCCTACCCTTCACAGACCGAACTAGAGCTT; test: gel filtration, radiolabelled ligand; details: 140 mM NaCl, 5 mM KCl, 1 mM MgCl2, 1 mM CaCl2; 20 mM Tris-HCl pH 7.4, 0.05% Tween 20, 25 °C; [3H]-daunomycin mixed with unlabelled; control sequence subtracted

`COc1cccc2c1C(=O)c1c(O)c3c(c(O)c1C2=O)C[C@@](O)(C(C)=O)C[C@@H]3O[C@H]1C[C@H](N)[C@H](O)[C@H](C)O1` was tested, and the Kd [1] was 4.78 ± 0.95 nM, the Kd [2] was 18.09 ± 5.2 nM and the Kd [3] was 13.2 ± 3.2 nM. The Kd [4] was 63600 ± 2400 nM, the Kd [5] was 114400 ± 7400 nM and the Kd [6] was 107900 ± 6900 nM. For the same molecule, the “Kd ∆ side-chains” value [7] was 4450 ± 280 nM, the Kd [8] was 46.8 ± 4.8 nM and the Kd [9] was 20.3 ± 4.4 nM. The Kd [10] was 21.9 ± 2.6 nM, the Kd [11] was 29.9 ± 10.2 nM and the Kd [12] was 21.7 ± 2.1 nM. It also gave a Kd [13] of 12.6 ± 3.5 nM.
